In patent US5162336A, “Tetrahydro-pyrido-indoles as cholecystokinin and gastrin antagonists” (Rhone-Poulenc Rorer Pharmaceuticals Inc., priority 1990, dated 1992):

Target: T1, Gastrin receptor (Cavia porcellus, UniProt H0VZC5)
T1 construct: The fundic mucosa is gently scraped off the submucosa; from tissue; host or cells: gastric glands from fundic mucosa of Hartley guinea pig
T1 sequence (H0VZC5 1-426): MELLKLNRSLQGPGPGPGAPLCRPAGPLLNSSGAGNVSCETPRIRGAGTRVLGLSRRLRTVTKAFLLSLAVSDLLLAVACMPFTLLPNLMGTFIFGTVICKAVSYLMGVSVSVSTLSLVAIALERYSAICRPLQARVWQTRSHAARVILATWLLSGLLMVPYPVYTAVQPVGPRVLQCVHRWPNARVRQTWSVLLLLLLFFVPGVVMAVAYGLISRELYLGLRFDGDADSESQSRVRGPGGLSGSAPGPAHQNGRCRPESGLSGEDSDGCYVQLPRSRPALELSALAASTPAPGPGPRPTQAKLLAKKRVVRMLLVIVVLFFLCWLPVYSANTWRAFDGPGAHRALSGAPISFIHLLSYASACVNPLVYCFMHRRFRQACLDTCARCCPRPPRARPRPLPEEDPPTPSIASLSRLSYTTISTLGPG
Assay: Gastrin receptor binding assay (displacement of 125I-(Leu-15)-Gastrin from guinea pig fundic glands)
Design: species or system guinea pig (Hartley Strain)
Conditions: guinea pig fundic mucosa glands, 25° C., 30 min, read-out: In vitro Binding Data IC50 Gastrin
Experimental: (a) Phosphate Buffered Saline (PBS): 8.743 g NaCl, 523 mg K2 HPO4 and 76.8 mg NaH2 PO4 is dissolved in 1.0 liter of deionized water and the pH of the solution is adjusted to 7.3 with 5N NaOH.
(b) Buffer A: While adding Basal Medium Eagle (BME) containing Earle's Salts, L-glutamine and 25 mM HEPES, 3 liters of deionized water is stirred, followed by the addition and dissolution of […] of sodium bicarbonate. The solution is then equilibrated with 95% O2 /5% CO2 gas followed by titration to a pH of 7.4 with NaOH.
(c) Buffer B: 18.75 mg of collagenase and […] of BSA is dissolved in 25 ml of Buffer A.
(d) Buffer C: 0.3 g of BSA is dissolved in 300 ml of Buffer A.
(e) 6.25 mg Bacitracin is dissolved in 25 ml of Buffer A.
(f) ^125 I-(Leu-15)-Gastrin: 100 microcurie dissolved in 2.0 ml of Buffer A to make 50 microcurie/ml.
(g) ^125 I-(15-methionine)-Human Gastrin: 50 microcurie/ml.
(h) (Leu 15)-Gastrin: 5.2 mg of (Leu-15)- Gastrin is dissolved in 10 ml of Buffer A. At the time of assay 1:10 dilution is made and 10 μl assay tube is used.
A guinea pig (Hartley Strain) weighing 150-200 grams, is sacrificed by CO2 asphyxiation and the stomach immediately excised, cut along the greater curvature, cleaned out and immediately immersed in a beaker containing cold PBS, pH 7.3, to insure thorough cleaning. The fundic mucosa is gently scraped off the submucosa and added to a preweighed 50 ml plastic centrifuge tube containing 30 ml of cold Buffer A. The weight of the plastic centrifuge tube containing the buffer is then subtracted from the combined weight of the mucosa and the buffer-containing tube to give the weight of the mucosa. The weight of the mucosa thus determined is recorded for later calculations.
The mucosa is then washed twice in Buffer A. After the final wash, the tissue is minced and is placed in a 100-ml glass beaker containing about 1.0 ml of Buffer A, and washed twice again by repeated centrifugation at 50×g for 5 minutes each and aspiration of supernatant. The washed tissue fragments are then added to a glass Erlenmeyer flask containing 25 ml of Buffer B and incubated in a Dubnoff shaking water bath at 37° C. for 30 minutes in a 95% O2 - 5% CO2 atmosphere. After the incubation, the digested tissue fragments in the Collegenase-buffer solution are triturated, filtered through a 200-micron nylon mesh and centrifuged at 50×g for 5 minutes. The supernatant is aspirated and discarded, the tissue washed 2× in Buffer C, resuspended in same buffer, incubated in a 37° C. water bath in an atmosphere of 95% O2 - 5% CO2 for 5 minutes, and centrifuged. The pelleted glands are suspended in Buffer D at a desired concentration of 2x10^5 glands/ml to use in the receptor binding assay.
Six minisorp tubes (16×100 mm) are serially marked and divided into two groups thus: tubes #1, #2, and #3 are marked "T" for "Totals" and tubes #4, #5, and #6 are marked "NS" for "Non-Specifics." Into each of the six tubes are added 220 μl of prepared glands in Buffer D; 20 μl of Buffer A in tubes #1, #2, and #3; 10 μl, in tubes #4, #5 and #6; (10μ of (Leu-15)-Gastrin (25 μM) in tubes #4, #5, and #6. The six tubes are then transferred immediately to a 25° C. water bath and challenged each with 10 μl ^125 I-(Leu-15)-Gastrin diluted as per calculation. The tubes are then covered with a gas hood connected to a 95% O2 - 5% CO2 gas source and mechanically agitated in a shaker for 30 minutes.
At the end of the incubation period, the assay mixtures are each filtered through a Whatman glass fiber filter B on a Brandel tissue harvester and washed twice with Buffer A. The filters are pre-soaked in Buffer C before use. The filter strips are removed after the final wash and individual filters counted in a Gamma Counter. The counts from the "Non-Specific" tubes are then averaged and subtracted from the average "Totals" to give the Specific Counts. […]

IC50 [µM] | SMILES
55 | O=C(Nc1ccccc1C(=O)N1CCCC1)[C@H]1Cc2c([nH]c3ccccc23)CN1C(=O)OCc1ccccc1 [Example 18, pyrrolidine-2-N-[(3R)-2-carbobenzoxy-1,2,3,4-tetrahydro-9H-pyrido-[3,4-b]indole-3-carboxyl]aminobenzamide]
4.1 | CC(C)C[C@H](NC(=O)[C@H]1Cc2c([nH]c3ccccc23)CN1C(=O)Nc1cccc(C(F)(F)F)c1)C(=O)N[C@@H](CC(=O)O)C(N)=O [Example 63]
6 | CC(C)C[C@H](NC(=O)[C@H]1Cc2c([nH]c3ccccc23)CN1)C(=O)N[C@@H](CC(=O)OCc1ccccc1)C(N)=O [Example 40]
78 | NC(=O)[C@H](CC(=O)O)NC(=O)[C@H]1Cc2c([nH]c3ccccc23)CN1C(=O)c1ccccc1 [Example 8, N-[(3R)-2-benzoyl-1,2,3,4-tetrahydro-9H-pyrido[3,4-b]indole-3-carboxyl]-L-aspartic acid amide]
15 | CC(C)C[C@H](NC(=O)[C@H]1Cc2c([nH]c3ccccc23)CN1C(=O)c1ccc2ccccc2c1)C(=O)N[C@@H](CC(=O)O)C(N)=O [Example 10, N-[(3R)-2-(2-naphthoyl)-1,2,3,4-tetrahydro-9H-pyrido[3,4-b]indole-3-carboxyl]-L-leucyl-L-aspartic acid amide]
0.23 | Cc1cccc(NC(=O)N2Cc3[nH]c4ccccc4c3C[C@@H]2C(=O)N[C@@H](CC(C)C)C(N)=O)c1 [Example 39, N-[(3R)-2-(3-methylphenylcarbamoyl)-1,2,3,4-tetrahydro-9H-pyrido[3,4-b]indole-3-carboxy]-L-leucinamide]
10 | CCOC(=O)c1ccc(NC(=O)[C@H]2Cc3c([nH]c4ccccc34)CN2C(=O)OCc2ccccc2)cc1 [Example 15, ethyl 4-N-[(3R)-2-carbobenzoxy-1,2,3,4-tetrahydro-9H-pyrido[3,4-b]indole-3-carboxyl]aminobenzoate]
> 30 | Cc1cccc(NC(=O)N2Cc3[nH]c4ccccc4c3C[C@@H]2C(=O)NCC(=O)N[C@@H](CC(=O)O)C(N)=O)c1 [Example 56, N-[(3R)-2-(3-methylphenylcarbamoyl)-1,2,3,4-tetrahydro-9H-pyido[3,4-b]indole-3-carboxyl]glycyl-L-aspartic acid amide]
8 | O=C(Nc1ccccc1C(=O)N1CCCC1)[C@@H]1Cc2c([nH]c3ccccc23)CN1C(=O)OCc1ccccc1 [Example 19, pyrrolidine-2-N-[(3S)-2-carbobenzoxy-1,2,3,4-tetrahydro-9H-pyrido[3,4-b]indole-3-carboxyl]aminobenzamide]
0.54 | CC(C)C[C@H](NC(=O)[C@H]1Cc2c([nH]c3ccccc23)CN1C(=O)Nc1ccc(Cl)c(Cl)c1)C(=O)N[C@@H](CC(=O)O)C(N)=O [Example 66]
12 | Cc1cccc(NC(=O)N2Cc3[nH]c4ccccc4c3C[C@@H]2C(=O)N[C@@H](CC(C)C)C(=O)N[C@@H](CC(N)=O)C(=O)O)c1 [Example 50]
60 | O=C(NC(c1ccccc1)c1ccccc1)[C@H]1Cc2c([nH]c3ccccc23)CN1 [Example 6, (3R)-3-diphenylmethylcarbamoyl-1,2,3,4-tetrahydro-9H-pyrido[3,4-b]indole]
22 | Cc1cccc(NC(=O)N2Cc3[nH]c4ccccc4c3C[C@@H]2C(=O)N[C@H](CC(C)C)C(=O)N[C@@H](CC(=O)O)C(N)=O)c1 [Example 57, N-[(3R)-2-(3-methylphenylcarbamoyl)-1,2,3,4-tetrahydro-9H-pyrido[3,4-b]indole-3-carboxyl]-D-leucyl-L-aspartic acid amide]
1.3 | NC(=O)[C@H](CC(=O)O)NC(=O)C1(NC(=O)[C@H]2Cc3c([nH]c4ccccc34)CN2C(=O)Nc2ccc(Cl)c(Cl)c2)CCCC1 [Example 26]
6.4 | COc1cccc(NC(=O)N2Cc3[nH]c4ccccc4c3C[C@@H]2C(=O)N[C@@H](CC(C)C)C(=O)N[C@@H](CC(=O)O)C(N)=O)c1 [Example 61]
0.91 | CC(C)C[C@H](NC(=O)[C@H]1Cc2c([nH]c3ccccc23)CN1C(=O)Nc1ccc(Cl)c(Cl)c1)C(=O)NCC(N)=O [Example 28]
5.3 | Cc1cccc(NC(=O)N2Cc3[nH]c4ccccc4c3C[C@@H]2C(=O)N[C@@H](COCc2ccccc2)C(=O)N[C@@H](CC(=O)O)C(N)=O)c1 [Example 64]
2.2 | Cc1cccc(NC(=O)N2Cc3[nH]c4ccccc4c3C[C@@H]2C(=O)N2CCC[C@H]2C(=O)N[C@@H](CC(=O)O)C(N)=O)c1 [Example 44, N-[(3R)-2-(3-methylphenylcarbamoyl)-1,2,3,4-tetrahydro-9H-pyrido[3,4-b]indole-3-carboxyl]-L-prolyl-L-aspartic acid amide]
30 | CCOC(=O)c1ccc(NC(=O)[C@H]2Cc3c([nH]c4ccccc34)CN2C(=O)Nc2cccc(C)c2)cc1 [Example 43]
100 | CCOC(=O)c1ccccc1NC(=O)[C@H]1Cc2c([nH]c3ccccc23)CN1C(=O)OCc1ccccc1 [Example 17]
> 300 | CCCCCN(CCCCC)C(=O)[C@H]1Cc2c([nH]c3ccccc23)CN1C(=O)Nc1cccc(C)c1 [Example 13, (3R)-3-(N,N-dipentylcarbamoyl)-2-(3-methylphenylcarbamoyl)-1,2,3,4-tetrahydro-9H-pyrido[3,4-b]indole]
2.6 | CCCCCN(CCCCC)C(=O)[C@H](CC(=O)O)NC(=O)[C@H]1Cc2c([nH]c3ccccc23)CN1C(=O)Nc1cccc(C)c1 [Example 46, N-[(3R)-2-(3-methylphenylcarbamoyl)-1,2,3,4-tetrahydro-9H-pyrido[3,4-b]indole-3-carboxyl]-L-aspartic acid dipentyl amide]
7.3 | CC(C)C[C@H](NC(=O)[C@H]1Cc2c([nH]c3ccccc23)CN1C(=O)Nc1cccc(F)c1)C(=O)N[C@@H](CC(=O)O)C(N)=O [Example 65]
6.8 | Cc1cccc(C(=O)N2Cc3[nH]c4ccccc4c3C[C@@H]2C(=O)N[C@@H](CC(C)C)C(=O)N[C@@H](CC(=O)O)C(N)=O)c1 [Example 54]
2 | CC(C)C[C@H](NC(=O)[C@H]1Cc2c([nH]c3ccccc23)CN1C(=O)Nc1cc(Cl)cc(Cl)c1)C(=O)N[C@@H](CC(=O)O)C(N)=O [Example 59, N-[(3R)-2-(3,5-dichlorophenylcarbamoyl)-1,2,3,4-tetrahydro-9H-pyrido[3,4-b]indole-3-carboxyl]-L-leucyl-L-aspartic acid amide]
4 | Cc1cccc(NC(=O)N2Cc3[nH]c4ccccc4c3C[C@@H]2C(=O)N[C@@H](CC(C)C)C(=O)N[C@@H](CC(=O)O)C(N)=O)c1 [Example 11, N-[(3R)-2-(3-methylphenylcarbamoyl)-1,2,3,4-tetrahydro-9H-pyrido[3,4-b]indole-3-carboxyl]-L-leucyl-L-aspartic acid amide]
